Reference: US7674771B2, “Antimicrobial peptides and utilization of the same” (Toagosei Co., Ltd, priority 2003, dated 2010)

What was measured:
[1] = tested on: Escherichia coli IFO 3972; assay: MIC by liquid medium dilution technique, 96-well microplate, gram-negative bacteria; assay type: cell-based
Experimental: (§1) Regarding the antimicrobial peptide (samples 1 to 20) related to the present invention, the antimicrobial activities (minimum inhibitory concentration: MIC) with respect to gram-negative bacteria (Escherichia coli IFO 3972) and gram-positive bacteria (Staphylococcus aureus IFO 12732) were determined by a liquid medium dilution technique using a 96-well microplate.
(§2) First, a drug (synthesized polypeptide) solution having a concentration of 40 times of the highest test concentration was prepared using sterile distilled water, and liquid-bouillon mediums (more specifically, “Mueller Hinton Broth” manufactured by DIFCO) including cation and having drug concentrations of 100, 50, 25, 12.5, 6.3, 3.1, 1.6 and 0.8 μM were respectively produced. The cation included was prepared as follows: dissolving 3.68 g of CaCl2.2H2O in 100 mL of purified water (10 mg.Ca^2+/mL), and thereafter adding 500 μL thereof into 100 mL of Mueller Hinton Broth; and dissolving 8.36 g of MgCl2.6H2O in 100 mL of purified water (10 mg.Mg^2+/mL), and thereafter adding 250 μL thereof into 100 mL of Mueller Hinton Broth. Thereafter, the produced liquid-bouillon mediums including the drug of each concentration were then fed to the 96-well microplate at […] a time.
(§3) At the same time, test bacteria cultured for 18 hours at 37° C. on an agar plate (“Muller Hinton Agar” manufactured by DIFCO) were gathered by scratching with a loop, and then suspended in a sterilized physiological saline. Bacterial suspension 5 μL prepared at an equivalent of 2×10^7 cells/mL was respectively inoculated (number of bacteria to be tested: approximately 1×10^6 cells/mL) onto the drug solution and fed to each well of the above-described microplate. After inoculation, the microplate was then incubated in an incubator at 37° C., and the presence of bacteria was evaluated based on the turbidity 24 hours later. The minimum drug concentration (polypeptide concentration), in which an increased in turbidity caused by bacteria was not detected at the time of measurement, was defined as MIC (minimum inhibitory concentration) (unit: μM) in the present embodiment. In addition, MIC were determined in the same manner using polymyxin B as a comparison.

[2] = tested on: Staphylococcus aureus IFO 12732; assay type: cell-based; settings: IFO 12732, 24 h
Experimental: as §1, §2, §3

[3] = tested on: S. aureus; assay type: cell-based, Staphylococcus aureus
Experimental: as §2, §3
Next, the antimicrobial activities (MIC) against gram-positive bacteria (S. aureus) in the presence of serum were tested with the same method as Example 2. […] Thereafter, the produced liquid-bouillon mediums including the drug and the serum of each concentration were then fed to the 96-well microplate at […] a time, and MIC were determined by the method same as Example 2. Sample X in the table is a mixture of sample 1 and sample 16 based on a mass ratio of 1:1. “-” in the table indicate “untested”.

[4] = tested on: Aspergillus niger IFO 6341; assay type: cell-based
Experimental: (§4) Antimicrobial activity against fungi (Aspergillus niger IFO 6341) of the antimicrobial peptides related to the present invention was tested according to a general antimycotic susceptibility test as follows.
More specifically, a slant or plate medium (“potato dextrose agar” medium manufactured by DIFCO was used typically) adhered with spores (conidia) was prepared in advance, and A. niger (IFO 6341; JIS test strain) were gathered from the medium by scratching the medium surface 4 to 5 times from bottom up with a 1 μL disposable loop and suspended in 25 mL of PBS (free of Mg, Ca) solution containing 0.05% of surfactant (Tween® 80). Thereafter, pipetting was performed using a measuring pipette or the like such that clusters of black spores disappeared completely. The spore concentration of the spore suspension prepared by such method was determined using a hemocytometer while the above-described surfactant containing PBS solution was being diluted accordingly, thereby deriving a spore suspension having a spore concentration of approximately 2.5×10^5 spores/mL.
At the same time, the above-described two polypeptides (samples 1, 3) and benzalkonium chloride serving as a comparison for antimycotic activity were dissolved in 10 mM of HEPES buffer (pH7.0) respectively to prepare stock solutions with a 2.0 mg/mL drug concentration. These were sequentially diluted to prepare various kinds of test drugs with drug (each polypeptide or benzalkonium chloride) concentrations of 400, 200, 100, 50, 25, 5 and 0.5 μg/mL.
A spore germination inhibition test and a spore growth inhibition test were performed using the above-prepared drugs and spore suspension as follows.
First, each of the above-described drugs was fed to the 96-well microplate at 40 μL a time for the spore germination inhibition test. The surplus drugs were stored in a refrigerator (4° C.) to be used for the spore growth inhibition test to be perform at a later date.
(§5) Next, a test fungus suspension was prepared by adding, with respect to 10 part by mass of the above-described spore suspension, 2 parts by mass of Alamar Blue fluorescence reagent (product of Wako Pure Chemical Industries, Ltd.) and 8 parts by mass of RPMI1640 medium containing 0.165M of MOPS, which was prepared by dissolving 5.2 g of RPMI1640 (product of Irvine Scientific) and 1.0 g of NaHCO3 in 450 mL of sterile distilled water and thereafter adding 17.12 g of MOPS and stirring, and adjusting the pH value to 7.0 by adding NaOH, and then filling up to 500 mL by adding sterile distilled water. Then, the fungus suspension was fed at 160 μL a time to the wells in which the above-described drugs were added. In addition, empty wells in which no drug was added were also fed at 160 μL a time for spore growth inhibition test. After feeding, it was cultured under a humid environment for 16 hours in an incubator at 30° C.
Twenty-four hours and 48 hours after the beginning of culturing, the colour of the mediums in the wells used for spore germination inhibition test and the wells for spore growth inhibition test were observed. Here, those in which the Alamar Blue included within the medium remain blue (oxidized form) were evaluated as positive of antimicrobial activity positive, and those that are pink (reduced form) were evaluated as negative of antimicrobial activity. Moreover, the smallest drug concentration recognized as oxidized form (blue color) was served as MIC (minimum growth inhibitory concentration) in the spore germination inhibition test and the spore growth inhibition test related to the present example.

[5] = tested on: Aspergillus niger IFO 6341; assay type: cell-based; settings: IFO 6341, 24 h
Experimental: as §4
More specifically, a slant or plate medium (“potato dextrose agar” medium manufactured by DIFCO was used typically) adhered with spores (conidia) was prepared in advance, and A. niger (IFO 6341; JIS test strain) were gathered from the medium by scratching the medium surface 4 to 5 times from bottom up with a 1 μL disposable loop and suspended in 25 mL of PBS (free of Mg, Ca) solution containing 0.05% of surfactant (Tween® 80). Thereafter, pipetting was performed using a measuring pipette or the like such that clusters of black spores disappeared completely. The spore concentration of the spore suspension prepared by such method was determined using a hemocytometer while the above-described surfactant containing PBS solution was being diluted accordingly, thereby deriving a spore suspension having a spore concentration of approximately 2.5×10^5 spores/mL. […]
as §5, with “Then, the fungus suspension was fed at 160 μL a time to the wells in which the above-described drugs were added. In addition, empty wells in which no drug was added were also fed at 160 μL a time for spore growth inhibition test. After feeding, it was cultured under a humid environment for 16 hours in an incubator at 30° C.” left out
Sixteen hours after the beginning of culturing, the plate was retrieve from the incubator, and the presence of generation (growth) of mycelia in each well (well that had already been fed exclusively by the above-described test drug) used for spore growth inhibition test was evaluated with a microscope. […]

## H-RKKKRKVLMWWMLR-NH2 [sample 1, RKKKRKVLMWWMLR-CONH2]
[1]; IFO 3972, 24 h
  Antimicrobial Activities (MIC) E. coli: 6.3 µM
[1]; comparison stated in text on Table 2
  antimicrobial activity against E. coli, in words: higher antimicrobial activities
[2]
  Antimicrobial Activities (MIC) S. aureus: 3.1 µM
[3]
  Antimicrobial Activities (MIC) against S. aureus, horse serum concentration 10%: 3.1 µM
  Antimicrobial Activities (MIC) against S. aureus, horse serum concentration 20%: 3.1 µM
  Antimicrobial Activities (MIC) against S. aureus, horse serum concentration 50%: 3.1 µM
[4]; IFO 6341, 24 h
  MIC against A. niger, spore germination inhibition test after 24 hours: 50 µg/mL
[4]; IFO 6341, 48 h
  MIC against A. niger, spore germination inhibition test after 48 hours: 50 µg/mL
[5]
  MIC against A. niger, spore growth inhibition test after 24 hours: 100 µg/mL
